PMC10916402, “Meropenem-ANT3310, a unique β-lactam-β-lactamase inhibitor combination with expanded antibacterial spectrum against Gram-negative pathogens including carbapenem-resistant Acinetobacter baumannii” (Antimicrobial Agents and Chemotherapy, 2024)
Converted amounts (≈) assume the structure as drawn. Where two headings read alike, the source gives them in different places.

Experiments:
KPC-2 = KPC-2 (Klebsiella pneumoniae, UniProt Q9F663); assay: In vitro SBL inhibition assay (nitrocefin hydrolysis), IC50; assay type: biochemical
Procedure: (§1) Nitrocefin (Sigma-Aldrich, St Louis, MO, USA), a chromogenic cephalosporin antibiotic (λ, 482 nm; εM, 15,000 M^−1.cm^−1), was used as a reporter substrate at 100 µM for KPC-2, OXA-23, and OXA-48, at 200 µM for OXA-24 and OXA-51, and at 50 µM for OXA-58. Enzymes were preincubated in the presence of varying concentrations of each compound (0.006 to 3000 nM, diluted twofold in dimethyl sulfoxide (DMSO) for KPC-2, OXA-23, and OXA-48 assays and 0.51 to 10,000 nM diluted threefold in DMSO for OXA-24, OXA-51, and OXA-58) for 10 min at 30°C. Nitrocefin was then added and its hydrolysis by the uninhibited enzyme fraction was followed at an absorbance wavelength of 482 nm for 10 min at 30°C using Envision UV fluorescence plate reader (Perkin Elmer, Waltham, MA, USA). Hydrolysis rate data were used to determine inhibitory activities, expressed in IC50 values [corresponding to the compound concentration (µM) required to inhibit 50% of enzymatic reaction].

OXA-48 = OXA-48 (Klebsiella pneumoniae, UniProt Q6XEC0); assay: as above; assay type: biochemical; details: 10 min preincubation, 30°C, read-out: Enzyme IC50
Procedure: as §1

OXA-23 = OXA-23 (Acinetobacter baumannii, UniProt Q9L4P2); assay: as above; assay type: biochemical; details: 10 min preincubation, 30°C, read-out: Enzyme IC50
Procedure: as §1

OXA-24/40 = OXA-24/40 (Acinetobacter baumannii, UniProt Q8RLA6); assay: as above; assay type: biochemical; details: 10 min preincubation, 30°C, read-out: Enzyme IC50
Procedure: as §1

OXA-58 = OXA-58 (Acinetobacter baumannii, UniProt Q2TR58); assay: as above; assay type: biochemical, A. baumannii
Procedure: as §1

OXA-51 = OXA-51 (Acinetobacter baumannii, UniProt Q5QT35); assay: as above; assay type: biochemical, A. baumannii; details: 10 min preincubation, 30°C, read-out: Enzyme IC50
Procedure: as §1

[1] = tested on: P. aeruginosa clinical isolates; assay: Broth microdilution MIC, P. aeruginosa clinical isolates; assay type: cell-based, Pseudomonas aeruginosa; details: 502 P. aeruginosa, 2019 global collection
Procedure: (§2) All isolates were randomly selected from the frozen culture collection of IHMA collected in 2018 and 2019. Matrix-assisted laser desorption ionization-time of flight mass spectrometry was used to confirm the identity of the organisms tested (Bruker Daltonics, Bremen, Germany).
(§3) MICs for all antimicrobial agents were determined at IHMA by broth microdilution in accordance with both CLSI ([17]) and EUCAST ([18]) guidelines. Microtiter panels were prepared by IHMA and stored at −70°C in cation-adjusted Mueller Hinton broth (CAMHB) (Becton Dickinson). Iron-depleted CAMHB was used to test cefiderocol. Panels containing ANT3310 were prepared fresh on the day of testing. […] MIC values corresponded to the first well with no visible growth. Quality control testing was performed on each day of testing with E. coli ATCC 25922, P. aeruginosa ATCC 27853, K. pneumoniae ATCC 700603 and BAA 1705, and A. baumannii NCTC 13304. MICs were interpreted using 2023 CLSI ([17]) and EUCAST ([18]) BPs.

[2] = tested on: A. baumannii clinical isolates; assay: Broth microdilution MIC, A. baumannii clinical isolates; assay type: cell-based, Acinetobacter baumannii; details: for CLSI % Res: for MEM-ANT3310 % at ≥16 µg/mL; for MIC90: read-out: MIC90
Procedure: as §2, §3

[3] = tested on: OXA-producing Enterobacterales (OXA-CRE); assay: organism not typed; assay type: cell-based
Procedure: as §2, §3

[4] = tested on: KPC-producing Enterobacterales (KPC-CRE); assay: organism not typed; assay type: cell-based
Procedure: as §2, §3

[5] = tested on: carbapenem-resistant Acinetobacter baumannii (CRAB) clinical isolates; assay: Broth microdilution MIC, CRAB isolates; assay type: cell-based; details: for Number of isolates inhibited at MIC of 0.25 µg/mL / Number of isolates inhibited at MIC of 0.5 µg/mL / Number of isolates inhibited at MIC of 1 µg/mL / Number of isolates inhibited at MIC of 2 µg/mL / Number of isolates inhibited at MIC of 4 µg/mL / Number of isolates inhibited at MIC of 8 µg/mL / Number of isolates inhibited at MIC of 16 µg/mL / Number of isolates inhibited at MIC of 32 µg/mL / Number of isolates inhibited at MIC of >32 µg/mL / Number of isolates inhibited at MIC of ≤0.125 µg/mL / MIC50 / MIC90: CRAB (MEM MICs >4 µg/mL); for CLSI % Res / CLSI % Sus: CRAB, CLSI BP; for CLSI % Res: for MEM-ANT3310 % at ≥16 µg/mL; for CLSI % Sus: for MEM-ANT3310 % inhibited at ≤8 µg/mL; for MIC90: read-out: MIC90
Procedure: as §2, §3

[6] = 2018 Global collection, All A. baumannii, N 500
[7] = 2019 Global collection, All A. baumannii, N 405
[8] = 252 OXA-producing Enterobacterales, EUCAST BP
[9] = 180 KPC-producing Enterobacterales, EUCAST BP

Sequence of KPC-2 (Q9F663 25-293 limits assumed): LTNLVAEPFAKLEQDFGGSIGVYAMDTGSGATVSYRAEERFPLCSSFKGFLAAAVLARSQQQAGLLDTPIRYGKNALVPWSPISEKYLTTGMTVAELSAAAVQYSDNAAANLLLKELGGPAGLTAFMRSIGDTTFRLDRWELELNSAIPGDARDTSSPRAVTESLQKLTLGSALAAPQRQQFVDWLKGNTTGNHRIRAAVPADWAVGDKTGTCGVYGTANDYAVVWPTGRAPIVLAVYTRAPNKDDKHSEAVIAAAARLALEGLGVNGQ
Sequence of OXA-58 (Q2TR58 19-280): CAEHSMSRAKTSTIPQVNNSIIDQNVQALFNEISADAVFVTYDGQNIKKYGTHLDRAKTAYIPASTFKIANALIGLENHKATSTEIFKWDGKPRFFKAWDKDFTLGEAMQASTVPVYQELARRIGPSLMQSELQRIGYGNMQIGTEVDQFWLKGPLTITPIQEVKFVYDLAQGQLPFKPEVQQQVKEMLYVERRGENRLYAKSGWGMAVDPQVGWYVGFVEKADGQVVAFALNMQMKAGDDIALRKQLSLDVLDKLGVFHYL
Sequence of OXA-23 (Q9L4P2 18-273): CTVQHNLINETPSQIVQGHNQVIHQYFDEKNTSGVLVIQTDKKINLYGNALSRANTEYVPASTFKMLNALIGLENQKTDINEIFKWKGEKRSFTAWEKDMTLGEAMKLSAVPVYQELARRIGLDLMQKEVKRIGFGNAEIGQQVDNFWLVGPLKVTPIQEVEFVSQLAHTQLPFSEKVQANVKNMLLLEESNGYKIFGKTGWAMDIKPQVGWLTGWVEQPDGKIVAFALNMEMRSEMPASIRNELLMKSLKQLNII
Sequence of OXA-24/40 (Q8RLA6 22-275): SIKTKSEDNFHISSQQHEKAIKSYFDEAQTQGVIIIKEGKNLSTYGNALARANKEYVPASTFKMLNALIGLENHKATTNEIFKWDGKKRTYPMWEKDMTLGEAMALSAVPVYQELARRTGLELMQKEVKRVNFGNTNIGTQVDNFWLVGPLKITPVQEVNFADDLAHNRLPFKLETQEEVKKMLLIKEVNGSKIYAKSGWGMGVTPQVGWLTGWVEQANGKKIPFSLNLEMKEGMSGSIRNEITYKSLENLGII
Sequence of OXA-51 (Q5QT35 entry or part of it): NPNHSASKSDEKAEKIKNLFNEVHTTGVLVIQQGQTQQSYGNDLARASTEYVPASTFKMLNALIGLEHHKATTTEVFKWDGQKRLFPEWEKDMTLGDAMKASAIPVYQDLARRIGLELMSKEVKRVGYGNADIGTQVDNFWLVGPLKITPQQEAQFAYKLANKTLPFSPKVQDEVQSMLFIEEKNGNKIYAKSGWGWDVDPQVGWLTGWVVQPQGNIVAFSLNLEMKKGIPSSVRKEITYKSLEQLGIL
Sequence of OXA-48 (Q6XEC0 23-265, looked up, species assumed): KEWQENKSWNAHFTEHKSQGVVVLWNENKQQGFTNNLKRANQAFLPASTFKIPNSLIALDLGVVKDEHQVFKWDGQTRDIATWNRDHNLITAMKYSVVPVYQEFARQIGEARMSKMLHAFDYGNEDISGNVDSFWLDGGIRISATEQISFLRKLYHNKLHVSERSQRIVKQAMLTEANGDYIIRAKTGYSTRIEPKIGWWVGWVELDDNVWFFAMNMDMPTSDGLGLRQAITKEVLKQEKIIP

Compound: NCCN[C@H]1CC[C@H](CC(=O)N[C@H]2Cc3cccc(C(=O)O)c3OB2O)CC1 [Tan, taniborbactam]
- IC50 (KPC-2): 15.8 nM
- IC50 (OXA-48): 1560 nM
- IC50 (OXA-23): > 3000 nM
- IC50 (OXA-24/40): > 10000 nM
- IC50 (OXA-58): > 10000 nM
- IC50 (OXA-51): > 10000 nM

Compound: CC(C)(O/N=C(\C(=O)N[C@@H]1C(=O)N2C(C(=O)[O-])=C(C[N+]3(CCNC(=O)c4ccc(O)c(O)c4Cl)CCCC3)CS[C@H]12)c1csc(N)n1)C(=O)O [Cefiderocol, cefiderocol]
- Number of isolates inhibited at MIC of 0.25 µg/mL [1]: 125
- Number of isolates inhibited at MIC of 0.5 µg/mL [1]: 92
- Number of isolates inhibited at MIC of 1 µg/mL [1]: 33
- Number of isolates inhibited at MIC of 2 µg/mL [1]: 16
- Number of isolates inhibited at MIC of 4 µg/mL [1]: 7
- Number of isolates inhibited at MIC of 8 µg/mL [1]: 1
- Number of isolates inhibited at MIC of 32 µg/mL [1]: 1
- Number of isolates inhibited at MIC of ≤0.125 µg/mL [1]: 227
- MIC50 ([1]; Pseudomonas aeruginosa, read-out: MIC50): 0.25 µg/mL (≈ 0.332 µM)
- MIC90 ([1]; Pseudomonas aeruginosa, read-out: MIC90): 1 µg/mL (≈ 1.33 µM)
- Number of isolates inhibited at MIC of 0.25 µg/mL [2, 6]: 83
- Number of isolates inhibited at MIC of 0.5 µg/mL [2, 6]: 111
- Number of isolates inhibited at MIC of 1 µg/mL [2, 6]: 78
- Number of isolates inhibited at MIC of 2 µg/mL [2, 6]: 52
- Number of isolates inhibited at MIC of 4 µg/mL [2, 6]: 24
- Number of isolates inhibited at MIC of 8 µg/mL [2, 6]: 3
- Number of isolates inhibited at MIC of 16 µg/mL [2, 6]: 3
- Number of isolates inhibited at MIC of 32 µg/mL [2, 6]: 2
- Number of isolates inhibited at MIC of >32 µg/mL [2, 6]: 21
- Number of isolates inhibited at MIC of ≤0.125 µg/mL [2, 6]: 123
- CLSI % Res ([2]; 2018 Global collection, All A. baumannii, N 500, CLSI BP): 10.6%
- MIC50 [2, 7]: 0.5 µg/mL (≈ 0.665 µM)
- Number of isolates inhibited at MIC of 0.25 µg/mL [2, 7]: 72
- Number of isolates inhibited at MIC of 0.5 µg/mL [2, 7]: 99
- Number of isolates inhibited at MIC of 1 µg/mL [2, 7]: 64
- Number of isolates inhibited at MIC of 2 µg/mL [2, 7]: 35
- Number of isolates inhibited at MIC of 4 µg/mL [2, 7]: 19
- Number of isolates inhibited at MIC of 8 µg/mL [2, 7]: 12
- Number of isolates inhibited at MIC of 16 µg/mL [2, 7]: 8
- Number of isolates inhibited at MIC of 32 µg/mL [2, 7]: 2
- Number of isolates inhibited at MIC of >32 µg/mL [2, 7]: 18
- Number of isolates inhibited at MIC of ≤0.125 µg/mL [2, 7]: 76
- CLSI % Res ([2]; 2019 Global collection, All A. baumannii, N 405, CLSI BP): 14.6%
- CLSI % Sus ([2]; 2019 Global collection, All A. baumannii, N 405, CLSI BP, for MEM-ANT3310 % inhibited at ≤8 µg/mL): 76.8%
- MIC50 ([2]; Acinetobacter baumannii, 2018 Global collection, All A. baumannii, N 500, read-out: MIC50): 0.5 µg/mL (≈ 0.665 µM)
- MIC90 ([2]; Acinetobacter baumannii, 2018 Global collection, All A. baumannii, N 500): 4 µg/mL (≈ 5.32 µM)
- MIC90 ([2]; Acinetobacter baumannii, 2019 Global collection, All A. baumannii, N 405): 4 µg/mL (≈ 5.32 µM)
- MIC90 ([2]; Acinetobacter baumannii, A. baumannii, one or both of the 2018/2019 collections): 4 µg/mL (≈ 5.32 µM)
- MIC50 [3]: 1 µg/mL (≈ 1.33 µM)
- MIC90 [3]: 4 µg/mL (≈ 5.32 µM)
- CLSI % Res ([3]; 252 OXA-producing Enterobacterales, CLSI BP, for MEM-ANT3310 % at ≥16 µg/mL): 0.4%
- CLSI % Sus ([3]; 252 OXA-producing Enterobacterales, CLSI BP, for MEM-ANT3310 % inhibited at ≤8 µg/mL): 98.8%
- EUCAST % Res [3, 8]: 21.8%
- EUCAST % Sus [3, 8]: 78.2%
- MIC50 [4]: 1 µg/mL (≈ 1.33 µM)
- MIC90 [4]: 4 µg/mL (≈ 5.32 µM)
- CLSI % Res ([4]; 180 KPC-producing Enterobacterales, CLSI BP, for MEM-ANT3310 % at ≥16 µg/mL): 0%
- CLSI % Sus ([4]; 180 KPC-producing Enterobacterales, CLSI BP, for MEM-ANT3310 % inhibited at ≤8 µg/mL): 100%
- EUCAST % Res [4, 9]: 27.2%
- EUCAST % Sus [4, 9]: 72.8%
- Number of isolates inhibited at MIC of 0.25 µg/mL ([5]; 2018 Global collection, N 363): 63
- Number of isolates inhibited at MIC of 0.5 µg/mL ([5]; 2018 Global collection, N 363): 99
- Number of isolates inhibited at MIC of 1 µg/mL ([5]; 2018 Global collection, N 363): 72
- Number of isolates inhibited at MIC of 2 µg/mL ([5]; 2018 Global collection, N 363): 49
- Number of isolates inhibited at MIC of 4 µg/mL ([5]; 2018 Global collection, N 363): 21
- Number of isolates inhibited at MIC of 8 µg/mL ([5]; 2018 Global collection, N 363): 3
- Number of isolates inhibited at MIC of 16 µg/mL ([5]; 2018 Global collection, N 363): 3
- Number of isolates inhibited at MIC of 32 µg/mL ([5]; 2018 Global collection, N 363): 2
- Number of isolates inhibited at MIC of >32 µg/mL ([5]; 2018 Global collection, N 363): 17
- Number of isolates inhibited at MIC of ≤0.125 µg/mL ([5]; 2018 Global collection, N 363): 34
- CLSI % Res ([5]; 2018 Global collection, N 363): 12.7%
- CLSI % Sus ([5]; 2018 Global collection, N 363): 73.8%
- MIC50 ([5]; 2019 Global collection, N 340): 0.5 µg/mL (≈ 0.665 µM)
- Number of isolates inhibited at MIC of 0.25 µg/mL ([5]; 2019 Global collection, N 340): 64
- Number of isolates inhibited at MIC of 0.5 µg/mL ([5]; 2019 Global collection, N 340): 93
- Number of isolates inhibited at MIC of 1 µg/mL ([5]; 2019 Global collection, N 340): 61
- Number of isolates inhibited at MIC of 2 µg/mL ([5]; 2019 Global collection, N 340): 34
- Number of isolates inhibited at MIC of 4 µg/mL ([5]; 2019 Global collection, N 340): 19
- Number of isolates inhibited at MIC of 8 µg/mL ([5]; 2019 Global collection, N 340): 9
- Number of isolates inhibited at MIC of 16 µg/mL ([5]; 2019 Global collection, N 340): 8
- Number of isolates inhibited at MIC of 32 µg/mL ([5]; 2019 Global collection, N 340): 2
- Number of isolates inhibited at MIC of >32 µg/mL ([5]; 2019 Global collection, N 340): 18
- Number of isolates inhibited at MIC of ≤0.125 µg/mL ([5]; 2019 Global collection, N 340): 32
- CLSI % Res ([5]; 2019 Global collection, N 340): 16.5%
- CLSI % Sus ([5]; 2019 Global collection, N 340): 73.5%
- MIC50 ([5]; Acinetobacter baumannii, 2018 Global collection, N 363, read-out: MIC50): 0.5 µg/mL (≈ 0.665 µM)
- MIC90 ([5]; Acinetobacter baumannii, 2018 Global collection, N 363): 4 µg/mL (≈ 5.32 µM)
- MIC90 ([5]; Acinetobacter baumannii, 2019 Global collection, N 340): 8 µg/mL (≈ 10.6 µM)
